Experimental data taken from patent US4382871A, “Detergent compositions” (Lever Brothers Company, priority 1980, dated 1983).

Tests used:
[1] = acute oral toxicity (LD50) in Webster mice; assay type: in vivo; conditions: mouse, in vivo, read-out: LD50 (dosage which is lethal for 50% of the mice)
Text: (§1) As stated above, a particular advantage of the builders of the present invention over the salts of unsubstituted oxydiacetic acid, is their lower toxicity. For example, using Webster mice, the acute oral toxicity data, (LD50), i.e., the dosage in grams per kilogram of body weight which is lethal for 50% of the mice, for two of the preferred embodiments compared to disodium oxydiacetate are as follows: […]

Webster mice = assay: acute oral toxicity (LD50) in Webster mice; assay type: in vivo; conditions: from LD50
Text: as §1

[2] = if accidentally swallowed; cited from earlier work

Compound | LD50 [1] [mg/kg] | Remarks (toxicity classification) (Webster mice) | emetic properties [2]
CC(OC(C)C(=O)[O-])C(=O)[O-].[Na+].[Na+] (stereo not shown) | > 5000 | non-toxic | –
CC(OCC(=O)[O-])C(=O)[O-].[Na+].[Na+] (stereo not shown) | > 5000 | non-toxic | –
O=C([O-])COCC(=O)[O-].[Na+].[Na+] [reference compound] | 2850 | slightly toxic | –
trisodium polyphosphate | – | – | emetic properties
